From patent US20150216168A1, “USE OF SUBSTITUTED 2-AMIDOBENZIMIDAZOLES, 2-AMIDOBENZOXAZOLES AND 2-AMIDOBENZOTHIAZOLES OR SALTS THEREOF AS ACTIVE SUBSTANCES AGAINST ABIOTIC PLANT STRESS” (BAYER CROPSCIENCE AG, priority 2012, published 2015)

Key:
Hordeum vulgare = test: Drought stress test on greenhouse crop plants, spray application, barley; format: in vivo; conditions: 500 g/ha
Method: (§1) Seeds of monocotyledonous and dicotyledonous crop plants were laid out in sandy loam in wood-fiber pots, covered with soil or sand and cultivated in a greenhouse under good growth conditions. The test plants were treated at the early leaf stage (BBCH10-BBCH13). To assure uniform water supply before commencement of stress, the potted plants were supplied with water by dam irrigation prior to substance application. The compounds according to the invention, formulated in the form of wettable powders (WP), were sprayed onto the green parts of the plants as an aqueous suspension at an equivalent water application rate of 600 I/ha with addition of 0.2% wetting agent (e.g. agrotin). Substance application was followed immediately by stress treatment of the plants. For this purpose, the pots were transferred into plastic inserts in order to prevent them from subsequently drying out too quickly. Drought stress was induced by gradual drying out under the following conditions:
(§2) “Day”: 14 hours with illumination at 26° C. […]
(§3) After the recovery phase had ended, the intensities of damage were analyzed in visual comparison to untreated, unstressed controls for the same age. The intensity of damage was first recorded as a percentage (100%=plants have died, 0%=like control plants). […]
(§4) In each trial, 3 pots per crop and dosage were treated and evaluated; the resulting efficacies are thus averages. […]

Zea mays = test: Drought stress test on greenhouse crop plants, spray application, corn; format: in vivo; conditions: 250 g/ha
Method: as §1, §2, §3, §4

`NC(=O)c1cccc2oc(-c3ccc(Cl)cc3Cl)nc12` [B1-18, 2-(2,4-Dichlorophenyl)-1,3-benzoxazole-4-carboxamide] was tested, and the “EF (HORVS): efficacy, percentage reduction in the intensity of damage” value (Hordeum vulgare) was >5% and the “EF (ZEAMX): efficacy, percentage reduction in the intensity of damage” value (Zea mays) was >5%.
